From patent US20150342195A1, “ANTI-MICROBIAL COMPOSITIONS, PREPARATIONS, METHODS, AND USES” (MYCO SCIENCES LIMITED, priority 2014, published 2015)
Values after ≈ are worked out from the molar mass of the structure shown.

Legend:
Type in all cases: cell-based
Magnaporthe oryzae = assay: microbe, parasite or virus in culture; conditions: PDA; for IC50: % of composition stock solution / IC50: concentration of copper or zinc in the composition, or phosphorous acid: 4 days; for IC50: concentration of copper or zinc in the composition, or phosphorous acid: Cu—Zn#12: 50% each of elemental copper and zinc
Fusarium graminearum = assay: microbe, parasite or virus in culture; conditions: for IC50: % of composition stock solution / IC50: concentration of copper or zinc in the composition, or phosphorous acid: PDA, 3 days; for IC50: concentration of copper or zinc in the composition, or phosphorous acid: Cu—Zn#12: 50% each of elemental copper and zinc; for Potassium sorbate synergy with composition/compound: potassium sorbate and composition/compound both at their IC50 concentrations
Botrytis cinerea = assay: Fungal growth inhibition assay (hyphal growth diameter on PDA); conditions: for IC50: % of composition stock solution / IC50: concentration of copper or zinc in the composition, or phosphorous acid: PDA, 2 days; for IC50: concentration of copper or zinc in the composition, or phosphorous acid: Cu—Zn#12: 50% each of elemental copper and zinc; for Potassium sorbate synergy with composition/compound: potassium sorbate and composition/compound both at their IC50 concentrations
Rhizoctonia solani = assay: as above; conditions: for IC50: % of composition stock solution / IC50: concentration of copper or zinc in the composition, or phosphorous acid: PDA, 1 day; for IC50: concentration of copper or zinc in the composition, or phosphorous acid: Cu—Zn# compositions: copper plus zinc; for Potassium sorbate synergy with composition/compound: potassium sorbate and composition/compound both at their IC50 concentrations
Alternaria alternata = assay: as above; conditions: PDA, 2 days; for IC50: concentration of copper or zinc in the composition, or phosphorous acid: Cu—Zn#12: 50% each of elemental copper and zinc
Ustilago maydis = assay: as above; set-up: Potassium sorbate synergy with composition/compound: key to the marks not given beside the values; conditions: for IC50: % of composition stock solution / IC50: concentration of copper or zinc in the composition, or phosphorous acid: PDA, 5 days; for IC50: concentration of copper or zinc in the composition, or phosphorous acid: Cu—Zn#12: 50% each of elemental copper and zinc; for Potassium sorbate synergy with composition/compound: potassium sorbate and composition/compound both at their IC50 concentrations
Aspergillus niger = assay: as above; conditions: for IC50: % of composition stock solution / IC50: concentration of copper or zinc in the composition, or phosphorous acid: PDA, 6 days; for IC50: concentration of copper or zinc in the composition, or phosphorous acid: Cu—Zn#12: 50% each of elemental copper and zinc; for Potassium sorbate synergy with composition/compound: potassium sorbate and composition/compound both at their IC50 concentrations
plant pathogenic fungi = assay: organism not typed; conditions: summary of TABLE 8
Trichophyton rubrum = assay: Fungal growth inhibition assay with Trichophyton rubrum; conditions: PDA, 33° C., 7 days; for T. rubrum IC50 values: Concentration: Cu—Zn#12: 50% each of elemental copper and zinc
Experimental: To assess the effects of compositions on fungal growth, 10 microliters of the test compositions diluted in sterile distilled water were placed in the wells of a 12-well tissue culture plate and 1 milliliter of liquid PDA was added by pipette to each well. Where multiple samples were added to each well, the 10 microliter drops were kept separate until they were mixed by the addition of hot liquid PDA and the plate was then agitated to evenly distribute the test composition(s) evenly through the agar (distilled water was used as vehicle control) and then the agar was allowed to set. For most strains (see TABLE 2), plugs of agar containing fungal hyphae (2 to 3 millimeters in diameter) from the edge of an established fungal culture were carefully cut out using a scalpel and inserted into holes cut in the centre of the agar in each well of the 12-well plate. With B. cinerea and U. maydis, mature cultures were washed with 3 ml of sterile distilled water and the spore suspensions obtained were adjusted to O.D. (at 600 nanometers) of 1.0 and 1.5, respectively. A small hole (˜1 millimeter) was made in the center of the PDA in each well with a yellow pipette tip and 1.5 microliters of spore suspension was carefully pipetted into the hole. […] To assess the effects of compositions on fungal growth in all experiments, the diameter of the hyphal growth was measured twice at a 90° angle using a ruler and the average diameter in millimeters was calculated. If no fungal growth could be detected by eye, the cultures were observed by phase microscopy (40×) to confirm that there was no growth (NG).
A clinical isolate of T. rubrum (strain 7107996; Phylum: Acomycota) was kindly provided by Dr. Richard Barton, Leeds University, UK. The growth assays with T. rubrum were as described in EXAMPLE 1, except this strain was cultured at 33° C. on PDA for 6 or 7 days when growth was assessed. T. rubrum cultures were maintained on Sabouraud dextrose agar at 33° C.
FIG. 8 is a graph depicting the effects of selected compositions and compounds on the growth of Trichophyton rubrum. The culture period was 7 days. Growth in the control cultures was 20±0 millimeters (mean±SD for 2 experiments).

[1] = tested on: Pseudomonas syringae (pv. tomato DC3000); assay: Bacterial microplate culture (resazurin MIC); conditions: 24 hours at 28° C.; highest concentration 400 mg/L (1% of stock solutions)
[2] = tested on: Ralstonia solanacearum (strain PSS4 from tomato); assay: microbe, parasite or virus in culture; conditions: 24 hours at 28° C.; highest concentration 400 mg/L (1% of stock solutions)
[3] = tested on: Xanthomonas oryzae (strain Gx0372); assay: microbe, parasite or virus in culture; conditions: 24 hours at 28° C.; highest concentration 400 mg/L (1% of stock solutions)
[4] = tested on: Xanthomonas campestris (strain Race 5 from brassica); assay: Bacterial microplate culture (resazurin MIC); conditions: 24 hours at 28° C.; highest concentration 400 mg/L (1% of stock solutions)

Compound | IC50: % of composition stock solution (Magnaporthe oryzae) | IC50: concentration of copper or zinc in the composition, or phosphorous acid (Magnaporthe oryzae) [mg/L] | IC50: % of composition stock solution (Fusarium graminearum) | IC50: concentration of copper or zinc in the composition, or phosphorous acid (Fusarium graminearum) [mg/L] | IC50: % of composition stock solution (Botrytis cinerea) | IC50: concentration of copper or zinc in the composition, or phosphorous acid (Botrytis cinerea) [mg/L] | Potassium sorbate synergy with composition/compound (Botrytis cinerea) | IC50: % of composition stock solution (Rhizoctonia solani) | IC50: concentration of copper or zinc in the composition, or phosphorous acid (Rhizoctonia solani) [mg/L] | IC50: % of composition stock solution (Alternaria alternata) | IC50: concentration of copper or zinc in the composition, or phosphorous acid (Alternaria alternata) [mg/L] | IC50: % of composition stock solution (Ustilago maydis) | IC50: concentration of copper or zinc in the composition, or phosphorous acid (Ustilago maydis) [mg/L] | IC50: % of composition stock solution (Aspergillus niger) | IC50: concentration of copper or zinc in the composition, or phosphorous acid (Aspergillus niger) [mg/L] | fungal strains (of those tested) showing strong synergy with KS (plant pathogenic fungi) | T. rubrum IC50 values: % of stock solution (Trichophyton rubrum) | T. rubrum IC50 values: Concentration (Trichophyton rubrum) [mg/L] | MIC [1] [mg/L] | MIC [2] [mg/L] | other results
O=S(=O)([O-])[O-].[Cu+2] [Copper sulfate, copper sulfate] | 0.51 % of composition stock solution | 204 | 0.22 % of composition stock solution | 88 | 0.46 % of composition stock solution | 184 | ++ | 0.39 % of composition stock solution | 156 | 0.44 % of composition stock solution | 176 | 0.43 % of composition stock solution | 172 | 0.19 % of composition stock solution | 76 | 6/7 | 0.20 % of stock solution | 80 | 100 | 50 | IC50: % of composition stock solution (Magnaporthe oryzae; listed as copper sulfate): 0.51 % of composition stock solutio; IC50: % of composition stock solution (Fusarium graminearum; listed as copper sulfate): 0.22 % of composition stock solutio; MIC [3]: 50 mg/L; MIC [4]: 50 mg/L
O=S(=O)([O-])[O-].[Zn+2] [Zinc sulfate, zinc sulfate] | 0.48 % of composition stock solution | 192 | 0.66 % of composition stock solution | 264 | 0.52 % of composition stock solution | 208 | + | 0.33 % of composition stock solution | 132 | 0.62 % of composition stock solution | 248 | 0.56 % of composition stock solution | 224 | 0.25 % of composition stock solution | 100 | 2 strains | 0.25 % of stock solution | 100 | 400 | >400 | IC50: % of composition stock solution (Magnaporthe oryzae; listed as zinc sulfate): 0.48 % of composition stock solutio; IC50: % of composition stock solution (Fusarium graminearum; listed as zinc sulfate): 0.66 % of composition stock solutio; Potassium sorbate synergy with composition/compound (Fusarium graminearum): +; Potassium sorbate synergy with composition/compound (Rhizoctonia solani): +; Potassium sorbate synergy with composition/compound (Ustilago maydis): ++; Potassium sorbate synergy with composition/compound (Aspergillus niger): +; MIC [3]: 400 mg/L; MIC [4]: >400 mg/L
Potassium phosphite | 3.7 % of composition stock solution | – | 0.78 % of composition stock solution | – | 0.67 % of composition stock solution | – | + | 0.93 % of composition stock solution | – | 1.1 % of composition stock solution | – | 1.3 % of composition stock solution | – | 0.19 % of composition stock solution | – | 2 strains | – | – | – | – | IC50 fold higher than the Cu#, Cu—Zn# or Zn# compositions (Magnaporthe oryzae): 13.7 fold; Potassium sorbate synergy with composition/compound (Fusarium graminearum): ++; Potassium sorbate synergy with composition/compound (Rhizoctonia solani): ++; Potassium sorbate synergy with composition/compound (Ustilago maydis): ++; Potassium sorbate synergy with composition/compound (Aspergillus niger): +
OP(O)O [Phosphorous acid, phosphorous acid] | 0.57 % of composition stock solution | 228 | 0.39 % of composition stock solution | 156 | 0.63 % of composition stock solution | 252 | + | 0.64 % of composition stock solution | 256 | 0.51 % of composition stock solution | 204 | 0.75 % of composition stock solution | 300 | 0.19 % of composition stock solution | 76 | 4/7 | 0.05 % of stock solution | 20 | 200 (≈ 2.44 mM) | 100 (≈ 1.22 mM) | IC50: % of composition stock solution (Magnaporthe oryzae; listed as phosphorous acid): 0.57 % of composition stock solutio; IC50: % of composition stock solution (Fusarium graminearum; listed as phosphorous acid): 0.78 % of composition stock solutio; Potassium sorbate synergy with composition/compound (Ustilago maydis): ++; Potassium sorbate synergy with composition/compound (Aspergillus niger): +; MIC [3]: 400 mg/L (≈ 4.88 mM); MIC [4]: >400 mg/L
